Assay results reported in patent US7081568B2, “Transgenic plants expressing temporin peptides” (University of Victoria Innovation and Development …, priority 1999, dated 2006).
Where no end group is shown, it is not given here.

Tests used:
Escherichia coli = assay: Bactericidal effect of antimicrobial peptides in microtiter plates, colony count; assay type: cell-based; conditions: approximately 1×10^5 bacteria/ml, 4 hours at room temperature, plated on LB, FIG. 2
Procedure: The cell cultures were incubated at room temperature in the presence of indicated concentration of Dermaseptin B (DSB; 7 μg/ml, 30 μg/ml, and 75 μg/ml), Temporin A (TA; 75 μg/ml, 133 μg/ml, 200 μg/ml) and a combination of Temporin A and Dermaseptin B (133 μg/ml Temporin A and 30 μg/ml Dermaseptin B) for 4 hours, diluted and plated on LB plates. After overnight incubation at 37° C., the colonies were counted and the survival of bacteria was scored.
(§1) Bactericidal effects of antimicrobial peptides (SEQ ID NO: 34 (MRSA3) and SEQ ID NO: 28 (MRSA2)) were determined against Escherichia coli (FIG. 2) and Erwinia carolovora (FIG. 3) in microtiter plates in a final volume of 220 μl containing approximately 1×10^5 bacteria/ml and indicated concentration of antimicrobial peptides. The cell cultures were incubated at room temperature for 4 hours, diluted and plated on LB plates. After overnight incubation at 37° C. (E. coli) or 28° C. (E. carotovora) the colonies were counted and the survival of bacteria was scored.

Erwinia carotovora = assay: as above; assay type: cell-based; conditions: approximately 1×10^5 bacteria/ml, 4 hours at room temperature, plated on LB, FIG. 3
Procedure: The cell cultures were incubated at room temperature in the presence of indicated concentration of Dermaseptin B (DSB; 23 μg/ml, 45 μg/ml) or Temporin A (TA; 67 μg/ml, 133 μg/ml) for 4 hours, diluted and plated on LB plates. After overnight incubation at 28° C., the colonies were counted and the survival of bacteria was scored.
as §1

Row | Substance | bactericidal effect, survival of bacteria (Escherichia coli) | bactericidal effect, survival of bacteria (Erwinia carotovora)
1 | MRSA3: mature 13 amino acid form of temporin A with a 6 amino acid N-terminal extension MASRHM; called Temporin A in figure legends (MASRHMFLPLIGRVLSGIL; ends and bridges not checked; listed as Rana temporaria) | significant antimicrobial activity | significant antimicrobial activity
2 | MRSA2: mature 27 amino acid form of dermaseptin b with a 5 amino acid N-terminal extension MAMWK; called Dermaseptin B in figure legends (MAMWKDVLKKIGTVALHAGKAALGAVADTISQ; ends and bridges not checked) | significant antimicrobial activity | significant antimicrobial activity
